{
  "source": "patent US7939495B2",
  "about": "“Method for improving skin conditions” (Caregen Co., Ltd, priority 2005, dated 2011)",
  "key": {"Balb C mice": {"tested_on": "Balb C mice", "test": "hair-growth activity after DHT treatment", "assay_type": "in vivo", "conditions": "observed on day 19 after hair removal; DHT 8 days, then 10 days treatment or none", "text": "The hairs of the back portions of Balb C mice were removed and a hair loss-inducing substance, dihydrotestosterone (DHT, TCI Inc.) was applied for 8 days to induce […] stage before the proliferation of kerationcytes."}, "laminin": {"tested_on": "laminin", "test": "laminin level in HaCaT cells (Laminin ELISA kit)", "assay_type": "cell-based, human", "conditions": "1 μmole, FIG. 9", "experimental": "(§1) Furthermore, HaCaT cell line was treated with the acetyl-decapeptide of this invention (1 μg/ml) and the level of procollagen, one of indicators to show the improvement in skin wrinkle, was examined (FIG. 8). The level of procollagen was measured using Procollagen ELISA kit (Takara). For verifying effects on levels of laminin and hyaluronic acid, another indicator representing the improvement in skin wrinkle, HaCaT cell line was incubated with the acetyl-decapeptide of this invention (1 μmole) and levels of laminin and hyaluronic acid were measured using Laminin ELISA kit (CHEMICON, USA) and Hyaluronic acid ELISA kit (Echelon Biosciences Inc, USA), respectively (FIG. 9)."}, "hyaluronic acid": {"tested_on": "hyaluronic acid", "test": "hyaluronic acid level in HaCaT cells (Hyaluronic acid ELISA kit)", "assay_type": "cell-based, human", "conditions": "1 μmole, FIG. 9", "experimental": "as §1"}, "3T3 fibroblast": {"tested_on": "3T3 fibroblast", "test": "[3H]-thymidine incorporation in 3T3 fibroblast", "assay_type": "cell-based", "conditions": "3T3 cells, 2 ng/ml serially diluted two-fold, FIG. 4", "experimental": "The biological activities of the purified acetyl-decapepetide of Example 10 were evaluated using 3T3 fibroblast (The Korean Cell Line Bank) according to Rizzino et al method to measure [^3H]-thymidine incorporation (Rizzino, et al. Cancer Res., 48:4266 (1988)). 3T3 cells were cultured in 250 ml-flasks containing EMEM (Eagle's minimal essential media, Gibco, U.S.A.) supplemented with […] (fetal bovine serum). 3T3 cells cultured were treated with 0.25% trypsin solution to detach cells from the bottom of culture flasks and centrifuged to collect cell pellets. Cells were resuspended in EMEM not containing FBS, its aliquot, 2×10^4 cells/0.3 ml medium was added to each well of 24-well plates and cultured under 7% CO2 for 24 hr at 37° C. 2 ng/ml of the acetyl decapeptide of this invention was serially diluted by two-fold using EMEM containing 0.2 (w/v) % bovine serum albumin and 0.3 ml of the diluted peptide was added to each well, followed by additional culturing under 7% CO2 for 6 hr at 37° C. Afterwards, 0.5 μCi of [^3H]-thymidine (Amersham, TRK 686, 68 Ci/mmol) was added to each well and incubated overnight. […] The dried filters were added along with 2 ml of scintillation cocktail to scintillation vials and allowed to stand for 30 min at room temperature, after which radioactivity incorporated into cells was determined using a scintillation counter (Beckman, U.S.A)."}, "[1]": {"tested_on": "receptor of basic fibroblast growth factor", "test": "competitive binding assay with 125I-labeled bFGF on BHK cells", "design": "species or system hamster", "conditions": "FIG. 3", "experimental": "To examine the binding potency of the purified acetyl-decapepetide of Example 10 to the receptor of basic fibroblast growth factor, the competitive binding assay was carried out using baby hamster kidney cells (BHK, the Korean Cell Line Bank) and ^125I-labeled bFGF (Amersham) according to process proposed by Baird et al. (Baird, et al., Proc. Natl. Acad. Sci. USA, 85:2324-2328 (1988)). Cells were cultured in 48-well plates for tissue culture and washed with cold Ham's F12 medium containing 0.2% gelatin (Sigma-Aldrich). 200 fmol of ^125I-bFGF and 1-100 nmol of acetyl decapeptide were dissolved in 200 μl of buffer and incubated with cells for 2 hr. Following the collection of cells by centrifugation, the cell membranes were isolated using 0.1% Triton X-100 and the radioactivity of ^125I-bFGF bound to receptors on cell membrane was determined using a gamma scintillation counter (Packard, U.S.A) (FIG. 3)."}, "HaCaT keratinocytes": {"tested_on": "HaCaT keratinocytes", "test": "SRB colorimetric assay of HaCaT keratinocyte growth", "assay_type": "cell-based, human", "conditions": "10 ng/ml or 1,000 ng/ml, 72 hr, FIGS. 6 and 7", "experimental": "To analyze effects of peptides of this invention on proliferation of keratinocytes, SRB (Sulforhodamine B) calorimetric assay was carried out using HaCaT kerationcyte according to Rizzino et al method (Rizzino, et al. Cancer Res., 48:4266 (1988)). HaCaT ketatinocytes (The Korean Cell Line Bank) were cultured in 250 ml-flasks containing EMEM (Eagle's minimal essential media, Gibco, U.S.A.) supplemented with […] (fetal bovine serum). HaCaT ketatinocytes cultured were treated with 0.25% trypsin solution to detach cells from the bottom of culture flasks and centrifuged to collect cell pellets. Cells were resuspended in EMEM not containing FBS, its aliquot (4×10^3) cells was added to each well of 96-well plates and cultured under 7% CO2 for 24 hr at 37° C. After 24-hr culture, the medium was changed with a fresh medium not containing serum and cells were incubated with bFGF or the acetyl-decapeptide of Example 10 (10 ng/ml or 1,000 ng/ml) dissolved in 10% DMSO for 72 hr under the same conditions as described above. After removing supernatants, cells were washed once using PBS (phosphate buffered saline) and incubated with SRB solution (Sigma-Aldrich). Cells were washed with PBS and observed under a microscope to find cell viability. In addition, absorbance at 590 nm was measured to analyze cell proliferation (FIG. 6). […]"}, "NIH-3T3 cell": {"tested_on": "NIH-3T3 cell", "test": "stability in 50 mM Tris-HCl at 37° C., residual activity by MTT assay", "assay_type": "physicochemical", "conditions": "50 mM Tris-HCl pH 8.0, 37° C., days 0-100, relative to day 0, FIG. 5", "experimental": "To evaluate stability of the purified acetyl decapeptide of Example 10, the decapeptide and acetyl decapeptide were dissolved in 50 mM Tris-HCl (pH 8.0) to a concentration of 10 μg/ml. A recombinant bFGF produced E. coli (Sigma-Aldrich) was prepared as a control in the same buffer to a concentration of 1 μg/ml. The prepared solutions were introduced into glass vials and kept to stand at 37° C. Afterwards, the solutions were taken on days 0, 1, 10, 25, 50, 75 and 100 and subjected to MTT assay (Scudiero, D. A., et al. Cancer Res. 48:4827-4833 (1988)) using NIH-3T3 cell (Korean Cell Line Bank) to determine residual activities of peptides and bFGF (FIG. 5). The results were given as relative values to the activity (100%) of sample taken on day 0."}, "procollagen": {"tested_on": "procollagen", "test": "procollagen level in HaCaT cells (Procollagen ELISA kit)", "assay_type": "cell-based, human", "conditions": "1 μg/ml, FIG. 8", "experimental": "as §1"}},
  "data": [
    {"compound": "C[C@]12CCC(=O)C[C@@H]1CC[C@@H]1[C@@H]2CC[C@]2(C)[C@@H](O)CC[C@@H]12", "note": "[DHT, dihydrotestosterone]", "values": [
      {"measurement": "hair growth", "setting": "Balb C mice", "value": "hair growth was barely observed"}
    ]},
    {"compound": "Ac-YRSRKYTSWY-OH [acetyl decapeptide]", "values": [
      {"measurement": "level of laminin", "setting": "laminin", "value": "induce the elevation of levels of laminin and hyaluronic acid"},
      {"measurement": "level of hyaluronic acid", "setting": "hyaluronic acid", "value": "induce the elevation of levels of laminin and hyaluronic acid"},
      {"measurement": "[3H]-thymidine incorporation into fibroblasts", "setting": "3T3 fibroblast", "value": "promotes thymidine incorporation into fibroblasts in a dose-dependent fashion"},
      {"measurement": "binding to bFGF receptor in competition with 125I-bFGF", "setting": "[1]; 200 fmol 125I-bFGF, 1-100 nmol peptide, 2 hr", "value": "binds to bFGF receptor in a competitive manner with bFGF"},
      {"measurement": "binding potency to bFGF receptor", "setting": "[1]", "value": "higher binding potency"},
      {"measurement": "cell viability / proliferation of HaCaT keratinocytes", "setting": "HaCaT keratinocytes", "value": "much higher cell viability than control"},
      {"measurement": "residual activity over time (stability)", "setting": "NIH-3T3 cell", "value": "excellent stability"},
      {"measurement": "level of procollagen in cells", "setting": "procollagen", "value": "increased in a time-dependent manner"}
    ]},
    {"compound": "decapeptide: unprotected bFGF-derived decapeptide, presumably the amino acid sequence of SEQ ID NO:1 (YRSRKYTSWY) (peptide having functions and actions of basic fibroblast growth factor)", "values": [
      {"measurement": "residual activity over time (stability)", "setting": "NIH-3T3 cell", "value": "not to be decreased over time"}
    ]},
    {"compound": "recombinant bFGF: recombinant bFGF produced E. coli (Sigma-Aldrich), prepared as a control", "values": [
      {"measurement": "residual activity over time (stability)", "setting": "NIH-3T3 cell", "value": "sharply decreased with the lapse of time"}
    ]}
  ]
}
